The series in a line: Local delivery of drug in charged liposomes/micelles from a hydrogel-coated metal mesh catheter by iontophoresis. The note with it: iontophoresis 5 mA, 8 V, 10 minutes.

Protocol: Liposome or micelles were prepared by mixing 3.0 mg of phosphatidylcholine, 3.0 mg of cholesterol and 0.3 mg of phosphatidylserine in a test tube. Chloroform (200 microliters) was added and the solution was evaporated to dryness in a test tube. 7-Amino Actinomycin D (500 mg) was dissolved in 8 mM CaCl2 for a final concentration of 0.5 mg/ml. The 7-Amino Actinomycin D solution was added to the lipid mixture in small aliquots with constant stirring. The hydrogel-coated metal mesh catheter was placed in the 7-amino Actinomycin D/liposome or micelle mixture and then used for drug delivery in the following manner: The hydrogel-coated metal mesh catheter was placed in the 7-Amino Actinomycin D/liposome or micelle mixture and then removed. In some cases, the hydrogel-coated mesh portion of the catheter was covered with a retractable sheath to prevent loss of the compound during the transport of the catheter from the arterial access site to the target site. When the catheter was positioned at the target site the sheath was retracted and the mesh was expanded against the arterial wall. Iontophoersis was performed by applying an electrical current to the mesh. […] In this example the iontophoresis parameters were 5 mA, and 8 V, applied for 10 minutes.

For the compound `Cc1c2oc3c(C)c(N)cc(C(=O)N[C@@H]4C(=O)N[C@H](C(C)C)C(=O)N5CCC[C@H]5C(=O)N(C)CC(=O)N(C)[C@@H](C(C)C)C(=O)O[C@@H]4C)c3nc-2c(C(=O)N[C@@H]2C(=O)N[C@H](C(C)C)C(=O)N3CCC[C@H]3C(=O)N(C)CC(=O)N(C)[C@@H](C(C)C)C(=O)O[C@@H]2C)c(N)c1=O` [7-Amino Actinomycin D], for the setting “7-Amino Actinomycin D/liposome or micelle mixture (phosphatidylcholine, cholesterol, phosphatidylserine)”, the “distribution of the fluorescent compound in the vessel after local delivery” value is “throughout the vessel wall and in the outer layer of the vessel”. Moreover, the “localization in the cells of the vessel after local delivery” value (7-Amino Actinomycin D/liposome or micelle mixture) is given as “evidence of localization of the 7-Amino Actinomycin D in the nuclei of the cells”.

Values taken from patent publication US20040034336A1, “Charged liposomes/micelles with encapsulted medical compounds” (priority 2002, published 2004).
